Reference: ChEMBL document CHEMBL1148247, “Synthesis and histone deacetylase inhibitory activity of cyclic tetrapeptides containing a retrohydroxamate as zinc ligand” (Bioorg Med Chem Lett, 2004)
pIC50: −log10 of the molar value. Where a SMILES comes first, the peptide text is derived from it. [ ]: non-standard residue; d: D form. The star is where a group is joined. Asu = N[C@@H](CCCCCC(=O)O)C(=O)O; aIle = CC[C@@H](C)[C@H](N)C(=O)O; NHOH = ON*

Tests used:
Mus musculus = species on record: Mus musculus; test: Effective concentration in histone deacetylases (HDAC) using p21 promoter assay
Histone deacetylase = test: Inhibitory activity against histone deacetylases (HDAC) prepared from mouse melanoma B16/BL6 cells; type: cell-based
[1] = molecular target: T1, Protein deacetylase HDAC6 (Mus musculus, UniProt Q9Z2V5); test: Inhibitory activity against histone deacetylase 6 prepared from mouse melanoma B16/BL6 cells; type: cell-based
T1 sequence (Q9Z2V5 whole entry): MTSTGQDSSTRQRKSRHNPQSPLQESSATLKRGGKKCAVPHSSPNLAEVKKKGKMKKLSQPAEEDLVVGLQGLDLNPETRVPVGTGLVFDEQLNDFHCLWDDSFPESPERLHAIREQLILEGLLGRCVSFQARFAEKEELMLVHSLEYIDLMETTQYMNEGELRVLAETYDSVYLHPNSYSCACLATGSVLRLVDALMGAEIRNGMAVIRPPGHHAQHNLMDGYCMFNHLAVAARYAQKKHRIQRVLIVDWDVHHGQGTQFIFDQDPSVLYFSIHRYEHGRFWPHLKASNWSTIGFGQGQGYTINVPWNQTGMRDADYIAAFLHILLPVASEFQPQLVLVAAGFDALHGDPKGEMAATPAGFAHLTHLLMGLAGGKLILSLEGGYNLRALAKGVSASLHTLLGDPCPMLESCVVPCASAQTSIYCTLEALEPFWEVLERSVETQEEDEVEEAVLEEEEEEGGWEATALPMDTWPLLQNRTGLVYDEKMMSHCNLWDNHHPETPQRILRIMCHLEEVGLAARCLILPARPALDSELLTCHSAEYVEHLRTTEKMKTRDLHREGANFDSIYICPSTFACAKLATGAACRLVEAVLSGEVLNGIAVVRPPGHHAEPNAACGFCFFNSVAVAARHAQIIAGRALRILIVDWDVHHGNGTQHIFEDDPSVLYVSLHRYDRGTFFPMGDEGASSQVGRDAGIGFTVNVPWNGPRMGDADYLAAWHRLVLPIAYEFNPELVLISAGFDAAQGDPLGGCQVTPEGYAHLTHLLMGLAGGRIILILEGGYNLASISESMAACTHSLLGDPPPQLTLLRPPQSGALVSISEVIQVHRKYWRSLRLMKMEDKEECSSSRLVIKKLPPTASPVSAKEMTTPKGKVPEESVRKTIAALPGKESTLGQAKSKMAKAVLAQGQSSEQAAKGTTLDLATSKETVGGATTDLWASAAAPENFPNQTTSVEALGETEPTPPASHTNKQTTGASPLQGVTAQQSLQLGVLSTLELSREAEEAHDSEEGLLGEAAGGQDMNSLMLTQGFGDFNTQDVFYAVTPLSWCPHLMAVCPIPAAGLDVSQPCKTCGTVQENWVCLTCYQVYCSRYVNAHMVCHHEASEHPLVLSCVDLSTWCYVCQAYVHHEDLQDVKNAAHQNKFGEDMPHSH

Histone deacetylase 8 = molecular target: T2, Histone deacetylase 8 (Mus musculus, UniProt Q8VH37); test: Inhibitory activity against histone deacetylase 8 prepared from mouse melanoma B16/BL6 cells; type: cell-based
T2 sequence (Q8VH37 whole entry): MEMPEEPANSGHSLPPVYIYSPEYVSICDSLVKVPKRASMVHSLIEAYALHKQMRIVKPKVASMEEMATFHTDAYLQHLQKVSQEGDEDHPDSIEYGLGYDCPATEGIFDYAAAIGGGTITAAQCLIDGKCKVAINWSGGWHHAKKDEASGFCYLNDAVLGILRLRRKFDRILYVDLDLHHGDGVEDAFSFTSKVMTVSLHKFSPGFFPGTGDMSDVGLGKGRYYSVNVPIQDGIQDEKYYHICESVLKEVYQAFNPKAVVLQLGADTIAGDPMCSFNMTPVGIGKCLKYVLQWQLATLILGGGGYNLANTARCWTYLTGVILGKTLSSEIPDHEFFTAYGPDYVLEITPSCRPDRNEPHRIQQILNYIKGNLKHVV

Histone deacetylase 1 [2] = molecular target: T3, Histone deacetylase 1 (Mus musculus, UniProt O09106)
T3 sequence (O09106 whole entry): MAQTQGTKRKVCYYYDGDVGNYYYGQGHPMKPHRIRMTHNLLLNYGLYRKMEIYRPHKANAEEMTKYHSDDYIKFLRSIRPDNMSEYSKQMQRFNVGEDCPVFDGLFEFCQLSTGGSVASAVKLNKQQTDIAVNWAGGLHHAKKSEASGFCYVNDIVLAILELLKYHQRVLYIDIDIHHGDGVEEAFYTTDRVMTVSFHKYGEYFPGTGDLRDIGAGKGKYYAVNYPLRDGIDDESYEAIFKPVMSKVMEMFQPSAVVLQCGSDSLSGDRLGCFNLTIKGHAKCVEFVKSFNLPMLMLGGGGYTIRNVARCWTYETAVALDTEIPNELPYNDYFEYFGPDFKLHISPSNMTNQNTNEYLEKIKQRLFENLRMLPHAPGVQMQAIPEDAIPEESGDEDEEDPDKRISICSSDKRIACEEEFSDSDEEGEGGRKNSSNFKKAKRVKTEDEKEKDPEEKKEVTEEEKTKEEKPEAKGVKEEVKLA
Description: (§1) Inhibitory activity against histone deacetylases (HDAC1) prepared from mouse melanoma B16/BL6 cells

Histone deacetylase 1 [3] = molecular target: T3, Histone deacetylase 1; settings: b16/bl6
Description: as §1

## CC[C@@H](C)[C@@H]1NC(=O)[C@@H](Cc2ccc(OC)cc2)NC(=O)[C@H](CCCCCC(=O)NO)NC(=O)[C@H]2CCCN2C1=O (cyclo([Asu](NHOH)[dY](Me)[aIle][dP]))
Mus musculus
  EC1000: 0.022 µM

## CC[C@@H](C)[C@@H]1NC(=O)[C@@H](Cc2ccc(OC)cc2)NC(=O)[C@H](CCCCN(O)C=O)NC(=O)[C@@H]2CCCCN2C1=O
Histone deacetylase
  IC50: 1392 nM

## CC[C@@H](C)[C@@H]1NC(=O)[C@@H](Cc2ccc(OC)cc2)NC(=O)[C@H](CCCCCCN(O)C=O)NC(=O)[C@@H]2CCCCN2C1=O
Histone deacetylase
  IC50: 1350 nM

## CC(/C=C/C(=O)NO)=C\[C@@H](C)C(=O)c1ccc(N(C)C)cc1 [TRICHOSTATIN]
Mus musculus
  EC1000: 0.19 µM

## CC[C@@H](C)[C@@H]1NC(=O)[C@@H](Cc2ccc(OC)cc2)NC(=O)[C@H](CCCCCN(O)C=O)NC(=O)[C@H]2CCCCN2C1=O
[1]
  pIC50: 6.11
Histone deacetylase
  IC50: 84 nM
Histone deacetylase 8
  pIC50: 7.34
Histone deacetylase 1 [2]
  pIC50: 7.59

## CC[C@@H](C)[C@@H]1NC(=O)[C@@H](Cc2ccc(OC)cc2)NC(=O)[C@H](CCCCCN(O)C=O)NC(=O)[C@H]2CCCN2C1=O
[1]
  pIC50: 6.75
Histone deacetylase 8
  pIC50: 7.23
Mus musculus
  EC1000: 0.61 µM
Histone deacetylase 1 [2]
  pIC50: 7.17

## CC[C@@H](C)[C@@H]1NC(=O)[C@@H](Cc2ccc(OC)cc2)NC(=O)[C@H](CCCCN(O)C(C)=O)NC(=O)[C@@H]2CCCCN2C1=O
Histone deacetylase
  IC50: 88500 nM

## CC[C@@H](C)[C@@H]1NC(=O)[C@@H](Cc2ccc(OC)cc2)NC(=O)[C@H](CCCCCN(O)C=O)NC(=O)[C@@H]2CCCCN2C1=O
Histone deacetylase
  IC50: 141 nM

## CC[C@@H](C)[C@@H]1NC(=O)[C@@H](Cc2ccc(OC)cc2)NC(=O)[C@H](CCCCCCN(O)C=O)NC(=O)[C@H]2CCCCN2C1=O
Histone deacetylase
  IC50: 893 nM

## CC[C@@H](C)[C@@H]1NC(=O)[C@@H](Cc2ccc(OC)cc2)NC(=O)[C@H](CCCCCN(O)C(C)=O)NC(=O)[C@@H]2CCCCN2C1=O
Histone deacetylase
  IC50: 58000 nM

## CC[C@@H](C)[C@@H]1NC(=O)[C@@H](Cc2ccc(OC)cc2)NC(=O)[C@H](CCCCCN(O)C=O)NC(=O)[C@@H]2CCCN2C1=O
[1]; b16/bl6
  pIC50: 7.54
Histone deacetylase 1 [3]
  pIC50: 7.48
Histone deacetylase 8; b16/bl6
  pIC50: 7.47

## CC[C@@H](C)[C@@H]1NC(=O)[C@@H](Cc2ccc(OC)cc2)NC(=O)[C@H](CCCCN(O)C=O)NC(=O)[C@H]2CCCCN2C1=O
Histone deacetylase
  IC50: 957 nM

## CC[C@@H](C)[C@@H]1NC(=O)[C@@H](Cc2ccc(OC)cc2)NC(=O)[C@H](CCCCCCC(=O)NO)NC(=O)[C@@H]2CCCCN2C1=O
Histone deacetylase
  IC50: 3.96 nM

## CC[C@H](C)[C@@H]1NC(=O)[C@@H](Cc2ccc(OC)cc2)NC(=O)[C@H](CCCCCC(=O)NO)NC(=O)[C@H]2CCCN2C1=O (cyclo([Asu](NHOH)[dY](Me)I[dP]))
Histone deacetylase 1 [2]
  pIC50: 9.40

## CC[C@@H](C)[C@@H]1NC(=O)[C@@H](Cc2ccc(OC)cc2)NC(=O)[C@H](CCCCN(O)C(C)=O)NC(=O)[C@H]2CCCCN2C1=O
Histone deacetylase
  IC50: 88400 nM

## CC[C@@H](C)[C@@H]1NC(=O)[C@@H](Cc2ccc(OC)cc2)NC(=O)[C@H](CCCCCN(O)C(C)=O)NC(=O)[C@H]2CCCCN2C1=O
Histone deacetylase
  IC50: 43800 nM
